# US20240159740A1, “METHOD FOR DIRECT ANALYSIS OF FUNCTIONAL AVIDITY OF T CELLS” (priority 2021, published 2024)
# Where “and” joins values, the source holds several entries; their conditions need not be identical. Equal values may be shown once.
# What was measured:
# serum IgG antibodies = conditions: sera 1:100 from iCope T cell assay responders and non-responders
# Method: After blocking (1 h, 30° C.) serum samples were diluted 1:100 and incubated for 1 h at 30° C. HRP-coupled, anti-human-IgG secondary antibody (Jackson Immunoresearch) was diluted 1:5000 (Jackson Immunoresearch) and added to the serum samples for 1 h at 30° C., then HRP substrate was added (TMB, Kem-En-Tec). The reaction was stopped by adding sulfuric acid and absorption was measured at 450 nm using a FlexStation 3.
# [1] = tested on: expanded CD40L+4-1BB+ CD4+ short-term T cell lines; test: Restimulation of expanded short-term T cell lines with autologous APC and peptides or peptide pools; format: cell-based, human; conditions: T cell lines from 5 unexposed individuals
# [2] = tested on: CD3 surface expression in CD40L+4-1BB+ CD4+ T cells; format: cell-based, human
# [3] = tested on: CD40L+4-1BB+ CD4+ T cells; test: Ex vivo T cell stimulation of PBMC, stimulation index of CD40L+4-1BB+ CD4+ T cells by flow cytometry; format: cell-based, human
substance,measurement,setting,value
Biotin-Ttds-PSKPSKRSFIEDLLFNKV-OH [204_-1],peptide binding IgG antibodies detected in serum,serum IgG antibodies,in all individuals
FIEDLLFNKVTLADA [compound 205],donors whose expanded SARS-CoV-2 S-II-cross-reactive T cells were stimulated by the peptide,[1],all 5 donors
SFIEDLLFNKVTLAD [iCope],donors in which reactive T cells increased in frequency and in functional avidity,[2],10 of 17
same,donors responding with high functional avidity T cells,"[2]; day 7 and day 14 after BNT162b2 primary vaccination, 31 donors",94%
same,proportion of individuals with iCope-recognizing CD4+ T cells,[3]; BNT162b2 vaccinated individuals,97%
same,proportion of individuals with iCope-reactive CD4+ T cells,[3]; SARS-CoV-2 / COVID-19 convalescents,50% and 50-60%
same,contribution of peptide-specific T cells to the CD40L+4-1BB+ cells in S-II stimulations,[3]; initially after BNT162b2 vaccination,up to 100%
same,proportion of individuals with iCope-reactive CD4+ T cells,[3]; unexposed individuals,20%
same,strong responders (stim. index>3),"[3]; young, unexposed donors",44%
same,weak responders (stim. index>1.5),"[3]; young, unexposed donors",39%
SKRSFIEDLLFNKVT [compound 204],donors whose expanded SARS-CoV-2 S-II-cross-reactive T cells were stimulated by the peptide,[1],all 5 donors
